Like-named read-outs stand apart in the source and are kept apart here.
Columns and labels:
MCF10A = test: SRB antiproliferative assay, MCF10A non-cancer breast cells; format: cell-based, human; conditions: Homo sapiens, MCF-10A; SRB, 48 h incubation, MCF10A non-cancer immortalised breast cells; read-out: GI50 MCF10A
Protocol: (§1) The human breast cancer cell lines MDA-MB468, MDA-MB231 and MCF-7 were purchased from ATCC and maintained in RPMI 1640 medium supplemented with 10% fetal bovine serum (Hyclone, Logan UT) and 2 mM L-glutamine. MCF10A and 184B5 immortalised breast cells were purchased from ATCC and maintained in mammary epithelial basal medium supplemented with an MEGM mammary epithelial singlequot kit (Cambrex). Cells were grown at 37 °C with 5% CO2, 95% air under the humidified conditions. Cell line authentication was carried out by Genetica DNA Laboratories (Burlington, NC) using a short tandem repeat profiling method (March 2015; July 2015; September 2016).
(§2) Cell cytotoxic effects were determined by a SRB-based protocol[2]^,[25].
(§3) The newly synthesised 4-piperazinylquinoline compounds (5–30) were evaluated for their antiproliferative effects using three breast cancer cell lines, for which the compounds were diluted to achieve seven different concentrations ranging from […]. Followed by 48 h incubation with the compound, cells were treated with sulforhodamine B (SRB) to measure their growth/viability (% of the untreated control) by spectrophotometer. The total cellular macromolecules levels known to accurately reflect by UV reading of SRB staining. […] The reference compounds CQ and cisplatin were included for the comparison.
(§4) We further assessed their antiproliferative effects on two non-cancer immortalised cell lines (184B5 and MCF10A). […] The antiproliferative effects of compound 23 on cancer cells are thus 7-fold (MDA-MB468 vs MCF10A) to 11-fold (MDA-MB231 vs 184B5) higher than matching non-cancer breast cells, which may indicate that compound 23 could potentially be safer than other compounds. Therefore, we examined it further to gain insights into its molecular mechanism of action.

184B5 = test: SRB antiproliferative assay, 184B5 non-cancer breast cells; format: cell-based, human; conditions: Homo sapiens; SRB, 48 h incubation, 184B5 non-cancer immortalised breast cells; read-out: GI50 184B5
Protocol: as §1, §2, §3, §4

MCF7 breast cancer cells = test: Plasma membrane integrity staining (EtBr, AO, CellMask) of MCF7 cells; format: cell-based, human
Protocol: (§5) Lysosomal and AO staining were carried out as described previously. Mitochondrial staining with MitoTracker was carried out as described previously. Briefly, cells were plated on a poly-D-lysine pre-coated 1.8-cm sterile glass coverslip that had been placed in a well of a 6-well clustered dish. Cells were then incubated with 50 nM MitoTracker Red (ThermoFisher) for 30 min in a cell culture incubator. Plasma membrane staining was carried out with lipid-specific CellMask (Molecular probes, Life Technologies), according to the manufacturer’s instruction. For actin staining, cells fixed with 4% formaldehyde were incubated with phalloidin conjugated with Fitc (green) for 30 min. For nuclear staining, cells were incubated with 5 µM of DRAQ5 (blue) for 5 min.
However, it is currently unclear how lipid molecules are found throughout the entire cytoplasm. […] In addition, cells treated with compound 23 are often enlarged and flattened, and contained multi-nuclei. In addition, many small vacuoles are found in the cytoplasm of these cells (Figure 4(a–c)). All of these phenomena are likely leading to eventual cancer cell demise in the presence of compound 23.
Figure 4. […] (a) MCF7 cell morphology changes in the presence of compound 23. MCF7 cells were sham treated or treated with compound 23 for 48 h, followed by staining with either EtBr. […]

MCF7 cells = test: Mitochondrial (MitoTracker) and lysosomal (LysoTracker) staining of MCF7 cells; format: cell-based, human
Protocol: as §5
It should be noted that these abnormalities could occur if the membranes of these organelles are compromised. Thus, the molecular target of compound 23 is likely a common element found in the membranes of cytoplasm, mitochondria and lysosomes, but not in the nuclear membrane as it is not compromised in the presence of compound 23 (Figures 4–6).
Figure 5. Mitochondrial membrane may be compromised in the presence of compound 23. […] (b) Mitochondria are aggregated and disorganized in the presence of compound 23. MCF7 mitochondria and nuclei were stained with MitoTracker and DRAQ5, respectively, as descried in Materials and methods.
Figure 6. […]

MDA-MB468 = test: SRB antiproliferative assay, MDA-MB468; format: cell-based, human; conditions: SRB, 48 h incubation, MDA-MB468 breast cancer cells, read-out: GI50 MDA-MB468
Protocol: as §1, §2, §3

MCF7 = test: SRB antiproliferative assay, MCF7; format: cell-based, human; conditions: Homo sapiens; SRB, 48 h incubation, MCF7 breast cancer cells; read-out: GI50 MCF7
Protocol: as §1, §2, §3

MDA-MB231 = test: SRB antiproliferative assay, MDA-MB231; format: cell-based, human; conditions: SRB, 48 h incubation, MDA-MB231 triple-negative breast cancer cells, read-out: GI50 MDA-MB231
Protocol: as §1, §2, §3

[1] = test system: breast cancer and non-cancer breast cell lines; test: SRB antiproliferative comparison of breast cancer and non-cancer breast cell lines; format: cell-based, human
Protocol: as §1, §2, §3, §4

`S=C(NCCN1CCOCC1)N1CCN(c2ccnc3cc(Cl)ccc23)CC1` [Compound 23, 4-(7-Chloro-quinolin-4-yl)-piperazine-1-carbothioic acid (2-morpholin-4-yl-ethyl)-amide] showed a GI50 (MCF10A) of 32.3 ± 0.8 µM, a GI50 (184B5) of 34.4 ± 0.6 µM and a melting point of 114 to 115 °C. The “cells showing compromised plasma membrane phenotypes” value (MCF7 breast cancer cells; MCF7, of 500 cells examined, 24-h post treatment) was 42.4 ± 4.8%, the “ethidium bromide uptake / plasma membrane integrity (in words)” value (MCF7 breast cancer cells; MCF7 cells, treated 48 h, vs Sham control) was “readily uptake ethidium bromide” and the “mitochondrial and lysosomal volumes (in words)” value (MCF7 cells) was “substantial increases in mitochondrial and lysosomal volumes”. The GI50 (MDA-MB468; Homo sapiens, MDA-MB-468, 48 h) was 4.7 µM, the GI50 (MDA-MB468) was 4.6 ± 0.6 µM and the GI50 (MCF7) was 4.5 ± 0.1 µM. The GI50 (MDA-MB231; Homo sapiens, MDA-MB-231, 48 h) was 5.3 µM, the GI50 (MDA-MB231) was 3 ± 0.1 µM and the “antiproliferative effect on cancer cells higher than matching non-cancer breast cells” value ([1]; MDA-MB231 vs 184B5) was 11 fold. For the same compound, the “antiproliferative effect on cancer cells higher than matching non-cancer breast cells” value ([1]; MDA-MB468 vs MCF10A) was 7 fold, the “higher activity than the reference compounds cisplatin and CQ” value ([1]; breast cancer cell lines, GI50 comparison) was 4-8 fold and the “antigrowth/cell-killing activity higher on cancer than non-cancer cells” value ([1]; overall range, cancer vs non-cancer breast cells) was 7-11 fold. The “antigrowth effect against cancer versus non-cancer cells (in words)” value ([1]; three breast cancer lines vs 184B5 and MCF10A) was “much stronger activities against cancer than non-cancer cells”.

From PMC6366420, “Design and synthesis of 4-piperazinyl quinoline derived urea/thioureas for anti-breast cancer activity by a hybrid pharmacophore approach” (Journal of Enzyme Inhibition and Medicinal Chemistry, 2019)
